This passage reports TGI results from PubChem BioAssay (NCI).

Some test systems named below: SW-620 colon; NCI-H226 lung; HT29 colon; HOP-62 NSCLC; HOP-92 NSCLC; SN12C renal; IGROV1 ovarian; K-562 leukemia; SNB-19 CNS; HCT-15 colon; HL-60(TB) leukemia; MOLT-4 leukemia; COLO 205 colon; UO-31 renal; NCI-H460 lung; UACC-257 melanoma; A549 NSCLC.
Holding throughout (assay): NCI anticancer screen, dose series, 48 h

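Cells were grown in 96-well plates and exposed to each compound for 48 hours at five concentrations; endpoints were interpolated linearly between bracketing concentrations, or set to the highest concentration if not reached. The concentration for full growth arrest is given as TGI.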 A value given as a limit tells only on which side of the number the result lay.

Turning to `COc1ccc(C(=O)N/N=C/c2c(C)n(C)n(-c3ccccc3)c2=O)cc1`, the TGI with SW-620 colon, in the experiment on NCI-H226 lung, in the experiment on HT29 colon, in the experiment with HOP-62 NSCLC, with HOP-92 NSCLC and with SN12C renal was over 100 µM each time. For the same molecule, the TGI in the experiment on IGROV1 ovarian, in the experiment with K-562 leukemia, in the experiment with SNB-19 CNS, in the experiment with HCT-15 colon, with HL-60(TB) leukemia and in the experiment with MOLT-4 leukemia was over 100 µM throughout. Besides, the TGI with COLO 205 colon, in the experiment on UO-31 renal, in the experiment with NCI-H460 lung, in the experiment with UACC-257 melanoma and with A549 NSCLC was over 100 µM in each case.

Consider `COc1cc2c(cc1C1=NC(C)(C)CO1)OCO2`, for which the TGI in the experiment on SW-620 colon, in the experiment on NCI-H226 lung, in the experiment on HT29 colon, with HOP-62 NSCLC, in the experiment with HOP-92 NSCLC and in the experiment with SN12C renal was over 100 µM in each case. In addition, the TGI with IGROV1 ovarian, with K-562 leukemia, with SNB-19 CNS, in the experiment on HCT-15 colon, in the experiment with HL-60(TB) leukemia and in the experiment on MOLT-4 leukemia was over 100 µM each time. Moreover, the TGI in the experiment with COLO 205 colon, in the experiment on UO-31 renal, in the experiment with NCI-H460 lung, in the experiment on UACC-257 melanoma and with A549 NSCLC was over 100 µM throughout.

Regarding `C=CCOC(=O)C1CCC(=O)N1C(=O)C(Cl)Cl` (stereo unspecified), the TGI with SW-620 colon, in the experiment on NCI-H226 lung, in the experiment with HT29 colon, in the experiment on HOP-62 NSCLC, in the experiment on HOP-92 NSCLC and in the experiment on SN12C renal was over 100 µM each time. In addition, the TGI with IGROV1 ovarian, in the experiment on K-562 leukemia, in the experiment with SNB-19 CNS, with HCT-15 colon, with HL-60(TB) leukemia and in the experiment on MOLT-4 leukemia was over 100 µM in each case. For the same molecule, the TGI in the experiment on COLO 205 colon, in the experiment on UO-31 renal, in the experiment with NCI-H460 lung, in the experiment with UACC-257 melanoma and in the experiment on A549 NSCLC was over 100 µM throughout.

In the case of `O=c1[nH]c(=O)n(C2OC(CO)C(O)C2O)cc1OCC(F)(F)F` (stereo unspecified), the TGI in the experiment with SW-620 colon, in the experiment with NCI-H226 lung, in the experiment with HT29 colon, in the experiment on HOP-62 NSCLC, in the experiment on HOP-92 NSCLC and in the experiment with SN12C renal was over 100 µM throughout. The TGI in the experiment on IGROV1 ovarian, in the experiment with K-562 leukemia, in the experiment on SNB-19 CNS, in the experiment with HCT-15 colon, in the experiment on HL-60(TB) leukemia and in the experiment on MOLT-4 leukemia was over 100 µM in each case. Moreover, the TGI in the experiment with COLO 205 colon, in the experiment on UO-31 renal, in the experiment on NCI-H460 lung, in the experiment with UACC-257 melanoma and with A549 NSCLC was over 100 µM throughout.

Turning to `CC1NC(=O)C2=C1C(N)=NC(=O)C2` (stereo unspecified), the TGI with SW-620 colon, with NCI-H226 lung, in the experiment on HOP-92 NSCLC, in the experiment with SN12C renal, with IGROV1 ovarian and with K-562 leukemia was over 100 µM throughout. The TGI in the experiment on SNB-19 CNS, with HCT-15 colon, in the experiment with MOLT-4 leukemia, with COLO 205 colon, in the experiment on UO-31 renal and in the experiment with NCI-H460 lung was over 100 µM each time. Further, the TGI in the experiment with UACC-257 melanoma and in the experiment on A549 NSCLC was over 100 µM throughout.

With `CC(=O)NNc1nc(C)c(C(=O)NNC(=O)C(=O)Nc2ccc([N+](=O)[O-])cc2C#N)s1`, the TGI with SW-620 colon, in the experiment on NCI-H226 lung, in the experiment with HT29 colon, in the experiment with HOP-62 NSCLC, in the experiment with SN12C renal and with IGROV1 ovarian was over 100 µM throughout. The TGI in the experiment on K-562 leukemia, in the experiment with SNB-19 CNS, in the experiment on HCT-15 colon, in the experiment on HL-60(TB) leukemia, in the experiment on MOLT-4 leukemia and in the experiment with COLO 205 colon was over 100 µM in each case. Moreover, the TGI in the experiment with UO-31 renal, in the experiment with NCI-H460 lung, with UACC-257 melanoma and with A549 NSCLC was over 100 µM throughout.

Regarding `CCn1c2c(c3ccccc31)C(c1ccccc1)CC1C(=O)N(c3ccccc3)C(=O)C21` (stereo unspecified), the TGI with SW-620 colon is over 100 µM; in the experiment with NCI-H226 lung it was over 100 µM; with HOP-62 NSCLC, over 100 µM; with HOP-92 NSCLC it was 75.7 µM; with SN12C renal, over 100 µM; in the experiment with IGROV1 ovarian, over 100 µM. Also, the TGI in the experiment on K-562 leukemia, with SNB-19 CNS, in the experiment with HCT-15 colon, in the experiment with HL-60(TB) leukemia, in the experiment with MOLT-4 leukemia and in the experiment on COLO 205 colon was over 100 µM each time. Also, the TGI in the experiment on UO-31 renal, with NCI-H460 lung, in the experiment with UACC-257 melanoma and in the experiment with A549 NSCLC was over 100 µM in each case.

For `CC(C)(C)OC(=O)c1cccnc1/C=N/O`, the TGI in the experiment on SW-620 colon, in the experiment with NCI-H226 lung, with HT29 colon, in the experiment with HOP-62 NSCLC, in the experiment on HOP-92 NSCLC and in the experiment with SN12C renal was over 100 µM in each case. Moreover, the TGI in the experiment on IGROV1 ovarian, in the experiment on K-562 leukemia, in the experiment with SNB-19 CNS, in the experiment with HCT-15 colon, in the experiment on HL-60(TB) leukemia and in the experiment on MOLT-4 leukemia was over 100 µM in each case. The TGI in the experiment on COLO 205 colon, with UO-31 renal, with NCI-H460 lung, in the experiment on UACC-257 melanoma and in the experiment with A549 NSCLC was over 100 µM each time.
